According to patent US9957264B2 (Merck Sharp & Dohme Corp., priority 2013, dated 2018):

Columns and labels:
[1] = target: JAK2 (recombinant purified GST-tagged catalytic domain) (Homo sapiens (Human), UniProt O60674); experiment: Jak Biochemical HTRF Assay (JAK2); conditions: [ATP] 8.5 μM
[2] = target: JAK1 (recombinant purified GST-tagged catalytic domain) (Homo sapiens (Human), UniProt P23458); experiment: Jak Biochemical HTRF Assay (JAK1); conditions: [ATP] 31.8 μM
How it was run: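 Phosphorylation of a common biotinylated peptide by each catalytic domain is measured by HTRF. The ATP-started reaction runs 120 min at room temperature before EDTA quench and detection.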

Chain of JAK1 (recombinant purified GST-tagged catalytic domain) (P23458 875-1153): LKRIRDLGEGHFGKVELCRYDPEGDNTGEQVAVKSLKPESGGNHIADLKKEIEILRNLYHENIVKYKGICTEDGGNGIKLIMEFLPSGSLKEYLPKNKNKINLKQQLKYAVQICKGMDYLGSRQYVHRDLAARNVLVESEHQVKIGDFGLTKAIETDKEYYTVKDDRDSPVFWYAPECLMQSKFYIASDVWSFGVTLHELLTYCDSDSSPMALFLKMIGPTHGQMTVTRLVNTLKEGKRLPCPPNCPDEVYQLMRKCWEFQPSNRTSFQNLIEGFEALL
Chain of JAK2 (recombinant purified GST-tagged catalytic domain) (O60674 849-1124): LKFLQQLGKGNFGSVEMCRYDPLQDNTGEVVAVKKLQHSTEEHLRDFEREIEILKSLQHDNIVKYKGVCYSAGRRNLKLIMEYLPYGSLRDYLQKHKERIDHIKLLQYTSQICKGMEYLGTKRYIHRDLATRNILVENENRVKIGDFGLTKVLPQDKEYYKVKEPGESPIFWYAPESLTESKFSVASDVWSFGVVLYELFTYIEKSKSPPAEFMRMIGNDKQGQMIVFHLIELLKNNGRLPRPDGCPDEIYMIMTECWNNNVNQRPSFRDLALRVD

Row | Compound | IC50 [1] | IC50 [2]
1 | CC(C)(C)N1Cc2cc(Nc3nn([C@@]4(CC#N)CCOC[C@H]4F)c4cc[nH]c(=O)c34)ccc2S1(=O)=O (single isomer, unassigned) [Example 5-255, 2-((3S,4S or 3R,4R)-4-(3-((2-(tert-butyl)-1,1-dioxido-2,3-dihydrobenzo[d]isothiazol-5-yl)amino)-4-oxo-4,5-dihydro-1H-pyrazolo[4,3-c]pyridin-1-yl)-3-fluorotetrahydro-2H-pyran-4-yl)acetonitrile] | 3.32 nM | 0.14 nM
2 | CC(C)(C)S(=O)(=O)c1ccc(Nc2nn([C@]3(CC#N)CCCOC3)c3cc[nH]c(=O)c23)cc1 [Example 5-183, [(3S)-3-(3-{[4-(tert-butylsulfonyl)phenyl]amino}-4-oxo-4,5-dihydro-1H-pyrazolo[4,3-c]pyridin-1-yl)tetrahydro-2H-pyran-3-yl]acetonitrile] | 0.47 nM | 0.17 nM
3 | CN(C)S(=O)(=O)c1ccc(Nc2nn(C3(CC#N)CCN(C(=O)O[C@@H]4CCOC4)CC3)c3cc[nH]c(=O)c23)cc1 [Example 11-6, (R)-tetrahydrofuran-3-yl 4-(cyanomethyl)-4-(3-((4-(N,N-dimethylsulfamoyl)phenyl)amino)-4-oxo-4,5-dihydro-1H-pyrazolo[4,3-c]pyridin-1-yl)piperidine-1-carboxylate] | 0.47 nM | 0.12 nM
4 | CN(C)c1ccc2cc(Nc3nn([C@]4(CC#N)CCCOC4)c4cc[nH]c(=O)c34)ccc2n1 [Example 5-225, (S)-2-(3-(3-((2-(dimethylamino)quinolin-6-yl)amino)-4-oxo-4,5-dihydro-1H-pyrazolo[4,3-c]pyridin-1-yl)tetrahydro-2H-pyran-3-yl)acetonitrile] | 2.3 nM | 0.15 nM
5 | CN(C)S(=O)(=O)c1ccc(Nc2nn(C3(CC#N)CCN(Cc4cccc(F)c4)CC3)c3cc[nH]c(=O)c23)cc1 [Example 8-8, 4-({1-[4-(cyanomethyl)-1-(3-fluorobenzyl)piperidin-4-yl]-4-oxo-4,5-dihydro-1H-pyrazolo[4,3-c]pyridin-3-yl}amino)-N,N-dimethylbenzenesulfonamide] | 0.52 nM | 0.29 nM
6 | N#CC[C@@]1(n2nc(Nc3ccc(C(N4CCCC4)C(F)(F)F)cc3)c3c(=O)[nH]ccc32)CCCOC1 (single isomer, unassigned) [Example 5-198, {(3S)-3-[4-oxo-3-({4-[(1R or 1S)-2,2,2-trifluoro-1-pyrrolidin-1-ylethyl]phenyl}amino)-4,5-dihydro-1H-pyrazolo [4,3-c]pyridin-1-yl]tetrahydro-2H-pyran-3-yl}acetonitrile] | 0.39 nM | 0.16 nM
7 | CC(C)(C)OC(=O)N1CCC(CC#N)(n2nc(Nc3ccc(C4(C(F)(F)F)CCNC4)cc3)c3c(=O)[nH]ccc32)CC1 (single isomer, unassigned) [Example 5-282, (S or R) tert-butyl 4-(cyanomethyl)-4-(4-oxo-3-((4-(3-(trifluoromethyl)pyrrolidin-3-yl)phenyl)amino)-4,5-dihydro-1H-pyrazolo[4,3-c]pyridin-1-yl)piperidine-1-carboxylate] | 0.49 nM | 0.33 nM
8 | CC(C)(C)NC(=O)[C@@H]1CC[C@@](CC#N)(n2nc(Nc3ccc4c(c3)CN(C(C)(C)C)S4(=O)=O)c3c(=O)[nH]ccc32)CO1 [Example 19-1, (2S,5S)-N-(tert-butyl)-5-(3-((2-(tert-butyl)-1,1-dioxido-2,3-dihydrobenzo[d]isothiazol-5-yl)amino)-4-oxo-4,5-dihydro-1H-pyrazolo[4,3-c]pyridin-1-yl)-5-(cyanomethyl)tetrahydro-2H-pyran-2-carboxamide] | 1.94 nM | 0.08 nM
9 | CNc1nn(C2(CC#N)CCN(C(=O)OC(C)(C)C)CC2)c2cc[nH]c(=O)c12 [Example 2-5, tert-butyl 4-(cyanomethyl)-4-[3-(methylamino)-4-oxo-4,5-dihydro-1H-pyrazolo [4,3-c]pyridin-1-yl] piperidine-1-carboxylate] | 490 nM | 20.3 nM
10 | Cc1cc(Nc2nn([C@]3(CC#N)CCCOC3)c3cc[nH]c(=O)c23)ccc1C(=O)N1CCCC[C@@H]1C [Example 20-2, 2-((S)-3-(3-((3-methyl-4-((S)-2-methylpiperidine-1-carbonyl)phenyl)amino)-4-oxo-4,5-dihydro-1H-pyrazolo[4,3-c]pyridin-1-yl)tetrahydro-2H-pyran-3-yl)acetonitrile] | 0.62 nM | 0.43 nM
11 | CCN(CC(F)(F)F)C(=O)c1ccc(Nc2nn([C@]3(CC#N)CC[C@@H](C(=O)OC(C)(C)C)OC3)c3cc[nH]c(=O)c23)cc1C [Example 20-14, (2S,5S)-tert-butyl 5-(cyanomethyl)-5-(3-((4-(ethyl(2,2,2-trifluoroethyl)carbamoyl)-3-methylphenyl)amino)-4-oxo-4,5-dihydro-1H-pyrazolo[4,3-c]pyridin-1-yl)tetrahydro-2H-pyran-2-carboxylate] | 0.51 nM | 0.28 nM
12 | CN(C)S(=O)(=O)c1ccc(Nc2nn(C3(CC#N)CCN(C(=O)CC(C)(C)C)CC3)c3cc[nH]c(=O)c23)cc1 [Example 9-23, 4-({1-[4-(cyanomethyl)-1-(3,3-dimethylbutanoyl)piperidin-4-yl]-4-oxo-4,5-dihydro-1H-pyrazolo[4,3-c]pyridin-3-yl}amino)-N,N-dimethylbenzenesulfonamide] | 1.32 nM | 0.14 nM
13 | CN(C)S(=O)(=O)c1ccc(Nc2nn(C3(CC#N)CCN(C(=O)CC4CC4)CC3)c3cc[nH]c(=O)c23)cc1 [Example 9-10, 4-({1-[4-(cyanomethyl)-1-(cyclopropylacetyl)piperidin-4-yl]-4-oxo-4,5-dihydro-1H-pyrazolo[4,3-c]pyridin-3-yl}amino)-N,N-dimethylbenzenesulfonamide] | 1.07 nM | 0.17 nM

Stronger by IC50 [1], values ahead:

Row | IC50 [1] | IC50 [2] | Compound
14 | 0.31 nM | 0.28 nM | CC(C)(C)OC(=O)N1CCC(CC#N)(n2nc(Nc3ccc4c(c3)CN(CC(F)(F)F)C4=O)c3c(=O)[nH]ccc32)CC1 [Example 5-5, tert-butyl 4-(cyanomethyl)-4-(4-oxo-3-{[1-oxo-2-(2,2,2-trifluoroethyl)-2,3-dihydro-1H-isoindol-5-yl]amino}-4,5-dihydro-1H-pyrazolo[4,3-c]pyridin-1-yl)piperidine-1-carboxylate]
15 | 0.17 nM | 0.07 nM | CC(O)(c1ccc(Nc2nn([C@@]3(CC#N)CCCC[C@H]3F)c3cc[nH]c(=O)c23)cc1)C(F)(F)F (single isomer, unassigned) [Example 5-85, {(1R,2R)-2-fluoro-1-[4-oxo-3-({4-[(1S or 1R)-2,2,2-trifluoro-1-hydroxy-1-methylethyl]phenyl}amino)-4,5-dihydro-1H-pyrazolo[4,3-c]pyridin-1-yl]cyclohexyl}acetonitrile]
16 | 0.27 nM | 0.49 nM | CC(c1ccc(Nc2nn([C@]3(CC#N)CCCOC3)c3cc[nH]c(=O)c23)cc1)N1CCCC1 (single isomer, unassigned) [Example 5-201, {(3S)-3-[4-oxo-3-({4-[(1R or 1S)-1-pyrrolidin-1-ylethyl]phenyl}amino)-4,5-dihydro-1H-pyrazolo[4,3-c]pyridin-1-yl]tetrahydro-2H-pyran-3-yl}acetonitrile]
17 | 0.24 nM | 0.11 nM | CN(C)S(=O)(=O)c1ccc(Nc2nn(C3(CC#N)CCN(C(=O)OCC(F)(F)F)CC3)c3cc[nH]c(=O)c23)cc1 [Example 12, 2,2,2-trifluoroethyl 4-(cyanomethyl)-4-(3-((4-(N,N-dimethylsulfamoyl)phenyl)amino)-4-oxo-4,5-dihydro-1H-pyrazolo[4,3-c]pyridin-1-yl)piperidine-1-carboxylate]
18 | 0.33 nM | 0.25 nM | CC(C)(C)OC(=O)N1CCC(CC#N)(n2nc(Nc3ccc4c(c3)CN(CC3CC3)S4(=O)=O)c3c(=O)[nH]ccc32)CC1 [Example 5-68, tert-butyl 4-(cyanomethyl)-4-(3-{[2-(cyclopropylmethyl)-1,1-dioxo-2,3-dihydro-1,2-benzothiazol-5-yl]amino}-4-oxo-1H,4H,5H-pyrazolo[4,3-c]pyridin-1-yl)piperidine-1-carboxylate]
19 | 0.32 nM | 0.33 nM | Cc1cc(Nc2nn(C3(CC#N)CCN(C(=O)OC(C)(C)C)CC3)c3cc[nH]c(=O)c23)ccc1C(=O)N1CCSCC1 [Example 21-14, tert-butyl-4-(cyanomethyl)-4-(3-(3-methyl-4-(thiomorpholine-4-carbonyl)phenylamino)-4-oxo-4,5-dihydropyrazolo[4,3-c]pyridin-1-yl)piperidine-1-carboxylate]
20 | 0.21 nM | 0.1 nM | COC(=O)N1CCC(CC#N)(n2nc(Nc3ccc4c(c3)CCC4(O)C(F)(F)F)c3c(=O)[nH]ccc32)CC1 (single isomer, unassigned) [Example 5-144, (R or S)-methyl 4-(cyanomethyl)-4-(3-((1-hydroxy-1-(trifluoro-methyl)-2,3-dihydro-1H-inden-5-yl)amino)-4-oxo-4,5-dihydro-1H-pyrazolo[4,3-c]pyridin-1-yl)piperidine-1-carboxylate]
21 | 0.23 nM | 0.07 nM | CC(C)(C)OC(=O)[C@@H]1CC[C@@](CC#N)(n2nc(Nc3ccc(C(N)C(F)(F)F)cc3)c3c(=O)[nH]ccc32)CO1 (stereo partly drawn) [Example 5-103, (2S,5S)-tert-butyl 5-(3-((4-(1-amino-2,2,2-trifluoroethyl)phenyl)amino)-4-oxo-4,5-dihydro-1H-pyrazolo[4,3-c]pyridin-1-yl)-5-(cyanomethyl)tetrahydro-2H-pyran-2-carboxylate]
22 | 0.05 nM | 0.05 nM | N#CC[C@@]1(n2nc(Nc3ccc4c(c3)CN(C3CCN(CC(F)(F)F)CC3)S4(=O)=O)c3c(=O)[nH]ccc32)CCOC[C@@H]1F (single isomer, unassigned) [Example 5-277, 2-((3R,4R or 3S,4S)-4-(3-((1,1-dioxido-2-(1-(2,2,2-trifluoroethyl)piperidin-4-yl)-2,3-dihydrobenzo[d]isothiazol-5-yl)amino)-4-oxo-4,5-dihydro-1H-pyrazolo[4,3-c]pyridin-1-yl)-3-fluorotetrahydro-2H-pyran-4-yl)acetonitrile]
